Experimental data: paper PMC4728187, “A fluorescent approach for identifying P2X1 ligands” (Neuropharmacology, 2015)
Values joined by “and” are separate entries in the source; they are usually repeats but may differ in a detail not shown here. Equal entries are not always repeated. “Also recorded” adds a separate entry of the source.

Key:
[1] = tested on: Untransfected HEK 293T cells; test: Fluorometric microplate assay with voltage-sensitive dye on untransfected cells; type: cell-based
P2X1 receptors [2] = target: T1, P2X1 receptors (Homo sapiens, UniProt P51575); test: Fluorometric microplate assay with voltage-sensitive (membrane potential) dye, FlexStation III; type: cell-based; set-up: expressed in transfected cells; conditions: for Hill slope (agonist response): agonist concentration-response; for EC50 / pEC50: agonist, peak fluorescence, HEK 293T cells stably expressing P2X1; for Hill slope (inhibition): inhibition of 10 μM ATP responses
T1 sequence (P51575 1-399): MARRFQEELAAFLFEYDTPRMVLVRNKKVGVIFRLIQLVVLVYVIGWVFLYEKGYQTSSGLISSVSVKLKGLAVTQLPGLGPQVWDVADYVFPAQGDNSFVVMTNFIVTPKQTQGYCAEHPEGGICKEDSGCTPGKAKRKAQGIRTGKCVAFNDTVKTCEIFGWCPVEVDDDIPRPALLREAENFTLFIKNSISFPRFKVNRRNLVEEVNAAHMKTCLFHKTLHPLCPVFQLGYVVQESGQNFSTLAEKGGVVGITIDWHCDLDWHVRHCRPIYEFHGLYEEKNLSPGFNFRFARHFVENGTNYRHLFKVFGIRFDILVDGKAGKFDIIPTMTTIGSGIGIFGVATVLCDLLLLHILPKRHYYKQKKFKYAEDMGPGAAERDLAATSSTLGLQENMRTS
Experimental: In brief, fragments were assessed for both agonist and antagonist activities using HEK 293T cells stably expressing doxycycline-inducible P2X1 receptors incubated for 45 min with 50 μl of a fluorescent dye sensitive to membrane potential (dye FLIPR Membrane Potential Assay Kit, Molecular Devices, Wokingham, UK) that was dissolved in buffer (mM: 115 NaCl, 1 KCl, 1 MgCl2, 1 CaCl2, 10 HEPES, 10 D-Glucose, pH 7.4). Dye-loaded cells were transferred to a FlexStation III (Molecular Devices) where compound applications were made without removing the dye. At recording intervals of 1.2 s, baseline fluorescence was recorded for 20 s, followed by a further 60 s after the addition of compounds. Ultimately two applications were made to the same cells. In the first, agonist activity was assessed by adding 50 μl novel fragment (final concentration = 300 μM) to each well. Following the completion of the first application, a second 50 μl application of 30 μM ATP (final concentration = 10 μM) was then added to the same cells. A response upon the first (fragment) application and an absence of a response on the second (ATP) application indicated agonist activity followed by inhibition as a result of receptor desensitisation.
In addition to testing fragments, the reproducibility of each experiment was assessed by including an ATP concentration–response in the first column and a saline control in the last column of the first application. […] The saline control in the first application also meant that an ATP concentration–response could be performed at the end of the second application. This allowed cell viability to be assessed by comparing the ATP concentration–response at the start of the first application with the ATP concentration–response at the end of the second application. […] Measurements from these concentration-dependence experiments were fitted using Eq. (1) below.
Measurements from the FlexStation III were recorded using the integrated software SoftMax Pro v5.4.5 (Molecular Devices). Analysis of concentration-dependence was performed with GraphPad Prism v5.00 (GraphPad Software, San Diego, CA, USA). Peak fluorescence was measured at a range of ligand concentrations and normalised to the maximum peak fluorescence for the same experiment. The mean and standard error of the mean (S.E.M.) for a series of measurements was plotted against agonist or antagonist concentration and iteratively fitted to the following equation:(1) y=Imin+Fmax−Fmin/1+10^((logR50-x)^nH) where Fmin is the baseline fluorescence, Fmax is the peak fluorescence, R50 is the concentration of ligand needed to generate a half-maximal response, x is the ligand concentration and nH is the Hill slope.

P2X1 receptors [3] = target: T1, P2X1 receptors; test: Confocal imaging of Alexa-647-ATP cell-surface labelling and competition by pre-treatment
Description: (§1) Live cells were routinely visualised in phosphate buffered saline (PBS (mM); 155 NaCl, 3.0 Na2HPO4, 1.0 KH2PO4, pH 7.4). Static and time-lapse images were collected using a FV300 laser-scanning confocal microscope with either an Olympus UplanFLN 40 × NA1.30 oil immersion objective and a 60 μm confocal aperture, or a PlanApo 60x NA1.42 oil immersion objective and a 60 μm confocal aperture. Images were exported to ImageJ v1.47 (National Institutes of Health, USA) and the Multi Measure plugin (Optinav Inc, WA, USA) used for analysing regions of interest.

[4] = target: P2X1 with N-terminus substituted by that of P2X2 receptor; set-up: method as in Rettinger and Schmalzing, 2004; Bhargava et al., 2013; conditions: desensitisation slowed by P2X2 N-terminus substitution; ref Rettinger and Schmalzing, 2004; Bhargava et al., 2013; cited from earlier work
[5] = tested on: non-induced HEK 293T cells; test: Confocal imaging of Alexa-647-ATP labelling on non-induced cells; type: binding; conditions: 150 nM Alexa-647-ATP
Description: as §1

P2X1 receptors [6] = target: T1, P2X1 receptors; test: Confocal microscopy kinetic analysis of Alexa-647-ATP binding at the cell surface; set-up: expressed in transfected cells
Experimental: Kinetic parameters were determined according to the following model of a simple bimolecular binding scheme:(2) L+R⇌koffkonLR where L is the free ligand concentration, R is receptor concentration, LR is the ligand–receptor complex and kon and koff are the microscopic association and dissociation rate constants. In a simple scheme such as this, the equilibrium dissociation constant (Kd) is equal to the ratio of dissociation to association rate constants, such that:(3) Kb=k−1/k+1
According to a one site binding model of the type shown, the observed rates of association and dissociation can be used to estimate k+1 and k−1:(4) 1/τoff=k−1 and(5) 1/τon=k+1[L]+k−1 where τon refers to the rate at which fluorescence increases, τoff refers to the rate that fluorescence decreases and [L] is concentration of the ligand used.
Intracellular and background fluorescence was also routinely monitored as a control.

P2X4 receptors = target: T2, P2X4 receptors (Homo sapiens, UniProt Q99571); test: Confocal imaging of Alexa-647-ATP labelling, P2X4-expressing cells; type: binding; conditions: HEK 293T cells expressing P2X4, data not shown
T2 construct: expressed in transfected cells; host or cells: HEK 293T
T2 sequence (Q99571 1-388): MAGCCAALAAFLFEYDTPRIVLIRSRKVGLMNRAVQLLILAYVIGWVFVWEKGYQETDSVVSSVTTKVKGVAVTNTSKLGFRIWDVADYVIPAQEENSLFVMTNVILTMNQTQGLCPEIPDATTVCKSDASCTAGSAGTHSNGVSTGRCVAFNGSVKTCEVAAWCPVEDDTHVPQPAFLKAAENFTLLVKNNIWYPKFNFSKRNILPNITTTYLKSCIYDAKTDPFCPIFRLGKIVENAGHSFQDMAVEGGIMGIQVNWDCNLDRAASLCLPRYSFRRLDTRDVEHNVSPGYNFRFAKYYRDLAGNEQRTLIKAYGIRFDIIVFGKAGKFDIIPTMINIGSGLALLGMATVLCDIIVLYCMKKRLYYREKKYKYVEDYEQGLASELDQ

P2X7 receptors = target: T3, P2X7 receptors (Homo sapiens, UniProt Q99572); test: Confocal imaging of Alexa-647-ATP labelling, P2X7-expressing cells; type: binding; conditions: HEK 293T cells expressing P2X7, data not shown
T3 construct: expressed in transfected cells; host or cells: HEK 293T
T3 sequence (Q99572 1-595): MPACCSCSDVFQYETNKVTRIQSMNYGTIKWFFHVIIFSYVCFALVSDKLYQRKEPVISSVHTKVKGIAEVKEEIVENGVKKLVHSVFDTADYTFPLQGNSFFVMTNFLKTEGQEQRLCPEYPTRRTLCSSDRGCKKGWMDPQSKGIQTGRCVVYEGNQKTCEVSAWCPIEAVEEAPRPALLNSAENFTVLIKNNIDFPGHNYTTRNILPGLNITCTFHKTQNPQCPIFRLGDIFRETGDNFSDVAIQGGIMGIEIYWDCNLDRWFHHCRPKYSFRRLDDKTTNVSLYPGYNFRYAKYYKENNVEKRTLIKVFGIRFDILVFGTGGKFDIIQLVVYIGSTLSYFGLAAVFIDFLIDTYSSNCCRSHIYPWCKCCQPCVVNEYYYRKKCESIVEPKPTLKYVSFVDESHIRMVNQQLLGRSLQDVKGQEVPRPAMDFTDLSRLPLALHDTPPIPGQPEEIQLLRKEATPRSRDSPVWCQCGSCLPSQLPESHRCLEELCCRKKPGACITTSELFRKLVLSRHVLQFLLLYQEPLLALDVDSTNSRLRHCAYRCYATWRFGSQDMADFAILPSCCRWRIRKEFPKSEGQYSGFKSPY

[7] = pre-treated with 5 mM, 150 nM Alexa-647-ATP

Compound	fluorescent response to agonist [1]	Hill slope (agonist response) (P2X1 receptors [2])	EC50 (P2X1 receptors [2])	pEC50 (P2X1 receptors [2])	Alexa-647-ATP cell-surface fluorescence after pre-treatment (P2X1 receptors [3]; [7])	EC50 [4]	Hill slope (inhibition) (P2X1 receptors [2])	other results
Nc1ncnc2c1ncn2[C@@H]1O[C@H](COP(=O)(O)OP(=O)([O-])OP(=O)([O-])O)[C@@H](O)[C@H]1O.[Mg+2] [MgATP]	did not respond	1.0 ± 0.1	14.1 µM	4.85 ± 0.07				
Nc1ncnc2c1ncn2[C@@H]1O[C@H](COP(=O)(O)OP(=O)(O)OP(=O)(O)O)[C@@H](O)[C@H]1O [ATP]					not seen	low nanomolar		
O=C(Nc1cc(C(=O)Nc2ccc(S(=O)(=O)O)cc2S(=O)(=O)O)cc(C(=O)Nc2ccc(S(=O)(=O)O)cc2S(=O)(=O)O)c1)Nc1cc(C(=O)Nc2ccc(S(=O)(=O)O)cc2S(=O)(=O)O)cc(C(=O)Nc2ccc(S(=O)(=O)O)cc2S(=O)(=O)O)c1 [NF449]							1.1 ± 0.2	Alexa-647-ATP cell-surface fluorescence after pre-treatment (P2X1 receptors [3]; pre-treated with 250 μM, 150 nM Alexa-647-ATP): not present; also recorded: not seen
Nc1ncnc2c1ncn2[C@@H]1O[C@H](COP(=O)(O)OP(=O)([O-])OP(=O)([O-])O)[C@@H](O)[C@H]1O.[Na+].[Na+] [NaATP]	did not respond	0.9 ± 0.2	5.49 µM	5.26 ± 0.09	not present			
Cc1ccc(C(=O)Nc2ccc(S(=O)(=O)O)c3cc(S(=O)(=O)O)cc(S(=O)(=O)O)c23)cc1NC(=O)c1cccc(NC(=O)Nc2cccc(C(=O)Nc3cc(C(=O)Nc4ccc(S(=O)(=O)O)c5cc(S(=O)(=O)O)cc(S(=O)(=O)O)c45)ccc3C)c2)c1 [suramin]							1.5 ± 0.7	Alexa-647-ATP cell-surface fluorescence after pre-treatment (P2X1 receptors [3]; pre-treatment, concentration not printed, 150 nM Alexa-647-ATP): still seen; also recorded: no competition was seen; Alexa-647-ATP cell-surface fluorescence after pre-treatment (P2X1 receptors [3]; pre-treatment, concentration not printed, 150 nM Alexa-647-ATP, listed as Suramin): did not alter cell-surface fluorescence
Alexa-647-ATP		1.1 ± 0.1	5.75 µM	5.24 ± 0.04		low nanomolar		cell-surface fluorescence after addition of ligand (P2X1 receptors [3]; 150 nM Alexa-647-ATP, P2X1-expressing HEK 293T cells): rapid increase in cell-surface fluorescence; cell permeability (fluorescence inside labelled cells) (P2X1 receptors [3]; live HEK 293T cells, confocal): not cell-permeable; cell-surface fluorescence [5]: not present; kobs (P2X1 receptors [6]; 0.5 μM Alexa-647-ATP): 0.79 ± 0.08 min⁻¹; kobs (P2X1 receptors [6]; 5 μM Alexa-647-ATP): 5.86 ± 0.58 min⁻¹; koff, direct measurement of dissociation (P2X1 receptors [6]; after rapid washing with PBS, mono-exponential fits): 0.00667 s⁻¹ and 0.00678 s⁻¹; association rate (kon) (P2X1 receptors [6]; slope of 1/τon (kobs) vs concentration): 1.142e+06 M⁻¹ s⁻¹; dissociation rate (koff) (P2X1 receptors [6]; y-axis intercept of 1/τon (kobs) vs concentration): 0.136 s⁻¹; cell-surface fluorescence (P2X4 receptors): could not detect any measureable fluorescence; cell-surface fluorescence (P2X7 receptors): could not detect any measureable fluorescence
